Data published in the NIST ThermoML archive (doi:10.1016/j.tca.2013.10.017).
Numbers after ± are expanded uncertainties.

Test: xn = mol fraction of the nth substance listed
Conditions: for surface tension liquid-gas: Ring tensiometer; for mass density: 101 kPa, Liquid, Vibrating tube method

O=C(CO)[C@@H](O)[C@H](O)[C@H](O)CO [D-fructose] + C[N+](C)(C)CCO.[Cl-]
x2 = 0.67
Conditions	surface tension liquid-gas [mN/m]
298.15 K	74.01 ± 1.4
308.15 K	71.98 ± 1.4
318.15 K	70.02 ± 1.4
328.15 K	68.03 ± 1.3
338.15 K	65.98 ± 1.3
348.15 K	64.02 ± 1.2
358.15 K	62.05 ± 1.2

CCN(CC)CCO.Cl [2-(diethylamino)ethanol hydrochloride] + OCCO
x1 = 0.25
Conditions	mass density [kg/m3]	surface tension liquid-gas [mN/m]
298.15 K	1100 ± 1	51.29 ± 0.91
303.15 K	1097 ± 1	50.74 ± 0.9
308.15 K	1093 ± 1	50.17 ± 0.89
313.15 K	1090 ± 1	49.63 ± 0.88
318.15 K	1087 ± 1	49.14 ± 0.87
323.15 K	1084 ± 1	48.67 ± 0.87
328.15 K	1081 ± 1	48.12 ± 0.86

C[N+](C)(C)CCO.[Cl-] [choline chloride] + OCC(O)CO
x1 = 0.33
Conditions	surface tension liquid-gas [mN/m]
298.15 K	57.24 ± 1
303.15 K	56.85 ± 1
308.15 K	56.43 ± 1
313.15 K	55.93 ± 1
318.15 K	55.45 ± 1
323.15 K	55.03 ± 1
328.15 K	54.55 ± 0.99

C[P+](c1ccccc1)(c1ccccc1)c1ccccc1.[Br-] [methyltriphenylphosphonium bromide] + OCC(O)CO
x1 = 0.25
Conditions	surface tension liquid-gas [mN/m]
298.15 K	59.35 ± 1
303.15 K	58.81 ± 1
308.15 K	58.2 ± 1
313.15 K	57.68 ± 1
318.15 K	57.06 ± 1
323.15 K	56.45 ± 0.99
328.15 K	55.95 ± 0.98

C[P+](c1ccccc1)(c1ccccc1)c1ccccc1.[Br-] [methyltriphenylphosphonium bromide] + OCCO
x1 = 0.2
Conditions	mass density [kg/m3]	surface tension liquid-gas [mN/m]
298.15 K	1289 ± 1	47.51 ± 0.85
303.15 K	1286 ± 1	47.06 ± 0.84
308.15 K	1282 ± 1	46.57 ± 0.83
313.15 K	1278 ± 1	46.12 ± 0.82
318.15 K	1275 ± 1	45.59 ± 0.82
323.15 K	1271 ± 1	45.12 ± 0.81
328.15 K	1267 ± 1	44.64 ± 0.8

C[N+](C)(C)CCO.[Cl-] [choline chloride] + OCCO
x1 = 0.33
Conditions	mass density [kg/m3]	surface tension liquid-gas [mN/m]
298.15 K	1118 ± 1	48.91 ± 0.9
303.15 K	1116 ± 1	48.43 ± 0.89
308.15 K	1112 ± 1	47.97 ± 0.88
313.15 K	1110 ± 1	47.5 ± 0.87
318.15 K	1106 ± 1	47.03 ± 0.86
323.15 K	1104 ± 1	46.67 ± 0.86
328.15 K	1101 ± 1	46.11 ± 0.85

C[N+](C)(C)CCO.[Cl-] [choline chloride] + O=C[C@H](O)[C@@H](O)[C@H](O)[C@H](O)CO
x1 = 0.67
Conditions	surface tension liquid-gas [mN/m]
298.15 K	71.71 ± 1.3
308.15 K	71.11 ± 1.3
318.15 K	70.42 ± 1.3
328.15 K	69.95 ± 1.3
338.15 K	69.44 ± 1.3
348.15 K	68.91 ± 1.3
358.15 K	68.61 ± 1.3

CCN(CC)CCO.Cl [2-(diethylamino)ethanol hydrochloride] + OCC(O)CO
x1 = 0.2
Conditions	mass density [kg/m3]	surface tension liquid-gas [mN/m]
298.15 K	1205 ± 1	58.94 ± 1
303.15 K	1202 ± 1	58.33 ± 1
308.15 K	1199 ± 1	57.63 ± 1
313.15 K	1196 ± 1	56.99 ± 1
318.15 K	1193 ± 1	56.39 ± 0.99
323.15 K	1188 ± 1	55.73 ± 0.98
328.15 K	1187 ± 1	55.16 ± 0.97
